Consider 45 molecules from patent US8637516B2 (IRM LLC, priority 2010, dated 2014).

One test deals with parental Ba/F3 cells. As to the kind of experiment: Proliferation of parental (untransformed, wt) Ba/F3 cells (BAF3/WT). To be noted: Mus musculus, Table 1, parental cells with IL3, 48 hours. It counts as cell-based, murine. In short, it runs like this: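 Parental Ba/F3 cells, maintained with mouse IL-3, were plated at 700 cells/well with compound (0.17 nM to 10 uM, 3-fold dilutions). After 48 h at 37 °C, proliferation was read by Bright-Glo luminescence.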

The target of test [1] is T1, Ba/F3 cells transformed with human Tel-TrkA (Homo sapiens, UniProt P04629).
T1 construct: expressed in transfected cells; host or cells: Ba/F3 murine hematopoietic progenitor cells (luciferase expressing); the other entry of the earlier key: ETV6 (P41212, Transcription factor ETV6)
T1 sequence (P04629 510-796 limits assumed): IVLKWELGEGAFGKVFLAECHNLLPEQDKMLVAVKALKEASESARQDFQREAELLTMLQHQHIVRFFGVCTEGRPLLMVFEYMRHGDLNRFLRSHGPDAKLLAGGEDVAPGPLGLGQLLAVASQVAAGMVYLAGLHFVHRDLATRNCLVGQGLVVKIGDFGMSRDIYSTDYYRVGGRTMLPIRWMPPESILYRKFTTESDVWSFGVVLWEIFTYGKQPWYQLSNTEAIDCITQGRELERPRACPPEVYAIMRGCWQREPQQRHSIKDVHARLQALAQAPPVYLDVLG
As to the kind of experiment: Proliferation of Ba/F3 cells transformed with human Tel-TrkA (Ba/F3 Tel-TrkA). It counts as cell-based. The following applies: Table 1; 48 hours, Bright Glo luminescence; read-out: Ba/F3 Tel-TrkA. The source says: Compound dilutions were made in 384 well plates.
The emited luminiscence is quantified using ViewLux (PerkinElmer).

As for `CCONC(=O)c1cnc2ccc(N3CCC[C@@H]3c3cccc(F)c3)nn12` [X-149], the IC50 in the test on parental Ba/F3 cells was over 10000 nM; in test [1], 23 nM.
The matching figures for `O=C(NO)c1cnc2ccc(N3CCC[C@@H]3c3cccc(F)c3)nn12` [X-150]: over 10000 nM and 210 nM.
The matching figures for `CONC(=O)c1cnc2ccc(N3CCC[C@@H]3c3cccc(F)c3)nn12` [X-151]: over 10000 nM and 45 nM.
As for `CCONC(=O)c1cnc2ccc(N3CCCC3c3cccc(F)c3)nn12` (stereo not drawn) [X-152, N-ethoxy-6-(2-(3-fluorophenyl)pyrrolidin-1-yl)imidazo[1,2-b]pyridazine-3-carboxamide], the values for the IC50 (with parental Ba/F3 cells; in test [1]) were over 10000 nM and 42 nM, respectively.
As for `O=C(NO)c1cnc2ccc(N3C[C@@H](F)C[C@@H]3c3cccc(F)c3)nn12` [X-153], the IC50 is over 10000 nM in the test on parental Ba/F3 cells and 10 nM in test [1].
Consider `CN1CCN(NC(=O)c2cnc3ccc(N4CCC[C@@H]4c4cccc(F)c4)nn23)CC1` [X-154, (R)-6-(2-(3-fluorophenyl)pyrrolidin-1-yl)-N-(4-methylpiperazin-1-yl)imidazo[1,2-b]pyridazine-3-carboxamide], for which the IC50 with parental Ba/F3 cells was over 10000 nM; in test [1], 153 nM.
Consider `NNC(=O)c1cnc2ccc(N3CCC[C@@H]3c3cccc(F)c3)nn12` [X-155], for which the values for the IC50 (in the test with parental Ba/F3 cells; in test [1]) were over 10000 nM and 242 nM, respectively.
As to `CCOC(=O)c1cnc2ccc(N3CCCCC3c3cccc(F)c3)nn12` (stereo not drawn) [X-156, ethyl 6-(2-(3-fluorophenyl)piperidin-1-yl)imidazo[1,2-b]pyridazine-3-carboxylate], the figures for the IC50 (with parental Ba/F3 cells; in test [1]) were over 10000 nM and 93 nM, respectively.
For the molecule `COC(=O)c1cnc2ccc(N3CCC[C@@H]3c3cccc(F)c3)nn12` [X-157], the figures for the IC50 (in the test on parental Ba/F3 cells; in test [1]) were over 10000 nM and 112 nM, respectively.
The matching figures for `CCOC(=O)c1cnc2ccc(N3CCC[C@@H]3c3cccc(F)c3)nn12` [X-158, (R)-ethyl 6-(2-(3-fluorophenyl)pyrrolidin-1-yl)imidazo[1,2-b]pyridazine-3-carboxylate]: over 10000 nM and 93 nM.
The matching figures for `CCOC(=O)c1cnc2ccc(N3CCC(=O)C3c3cccc(F)c3)nn12` (stereo not drawn) [X-159, ethyl 6-(2-(3-fluorophenyl)-3-oxopyrrolidin-1-yl)imidazo[1,2-b]pyridazine-3-carboxylate]: over 10000 nM and 251 nM.
The matching figures for `CCOC(=O)c1cnc2ccc(N3C[C@H](O)C[C@@H]3c3cccc(F)c3)nn12` [X-160, ethyl 6-((2R,4R)-2-(3-fluorophenyl)-4-hydroxypyrrolidin-1-yl)imidazo[1,2-b]pyridazine-3-carboxylate]: over 10000 nM and 73 nM.
With `[2H]C1([2H])C(c2cccc(F)c2)N(c2ccc3ncc(C(=O)OCC)n3n2)C([2H])([2H])C1([2H])[2H]` (stereo not drawn) [X-161], the results for the IC50 (in the test with parental Ba/F3 cells; in test [1]) were over 10000 nM and 63 nM, respectively.
The matching figures for `[2H]C1(c2cccc(F)c2)CCCN1c1ccc2ncc(C(=O)OCC)n2n1` (stereo not drawn) [X-162]: over 10000 nM and 80 nM.
Regarding `[2H]C1([2H])N(c2ccc3ncc(C(=O)OCC)n3n2)C([2H])(c2cccc(F)c2)C([2H])([2H])C1([2H])[2H]` (stereo not drawn) [X-163], the results for the IC50 (with parental Ba/F3 cells; in test [1]) were over 10000 nM and 79 nM, respectively.
The matching figures for `CCOC(=O)c1cnc2ccc(N3CC(F)(F)C(F)(F)[C@@H]3c3cccc(F)c3)nn12` [X-164, (S)-ethyl 6-(3,3,4,4-tetrafluoro-2-(3-fluorophenyl)pyrrolidin-1-yl)imidazo[1,2-b]pyridazine-3-carboxylate]: over 10000 nM and 600 nM.
The matching figures for `CCOC(=O)c1cnc2ccc(N3C[C@@H](F)C[C@@H]3c3cccc(F)c3)nn12` [X-165, ethyl 6-((2R,4S)-4-fluoro-2-(3-fluorophenyl)pyrrolidin-1-yl)imidazo[1,2-b]pyridazine-3-carboxylate]: over 10000 nM and 4 nM.
The matching figures for `CCOC(=O)c1cnc2ccc(N3C[C@H](F)C[C@H]3c3cccc(F)c3)nn12` [X-166, ethyl 6-((2S,4R)-4-fluoro-2-(3-fluorophenyl)pyrrolidin-1-yl)imidazo[1,2-b]pyridazine-3-carboxylate]: over 10000 nM and 314 nM.
For `CCOCC(=O)Nc1cnc2ccc(N3CCC[C@@H]3c3cccc(F)c3)nn12` [X-168, (R)-2-ethoxy-N-(6-(2-(3-fluorophenyl)pyrrolidin-1-yl)imidazo[1,2-b]pyridazin-3-yl)acetamide], the IC50 in the test on parental Ba/F3 cells was over 10000 nM; in test [1] it was 17 nM.
The matching figures for `CC(=O)OCC(=O)Nc1cnc2ccc(N3CCC[C@@H]3c3cccc(F)c3)nn12` [X-172, (R)-2-(6-(2-(3-fluorophenyl)pyrrolidin-1-yl)imidazo[1,2-b]pyridazin-3-ylamino)-2-oxoethyl acetate]: over 10000 nM and 38 nM.
With `COCCC(=O)Nc1cnc2ccc(N3CCC[C@@H]3c3cccc(F)c3)nn12` [X-173], the IC50 in the test with parental Ba/F3 cells is over 10000 nM; in test [1], 229 nM.
Regarding `N#CCC(=O)Nc1cnc2ccc(N3CCC[C@@H]3c3cccc(F)c3)nn12` [X-184], the results for the IC50 (in the test on parental Ba/F3 cells; in test [1]) were over 10000 nM and 291 nM, respectively.
With `COc1ccc(OCC(=O)Nc2cnc3ccc(N4CCC[C@@H]4c4cccc(F)c4)nn23)cc1` [X-186], the IC50 in the test with parental Ba/F3 cells was over 10000 nM; in test [1], 78 nM.
The matching figures for `CC(=O)OC(C)(C)C(=O)Nc1cnc2ccc(N3CCC[C@@H]3c3cccc(F)c3)nn12` [X-188]: over 10000 nM and 46 nM.
Turning to `CC(C)(C)OC(=O)NCC(=O)Nc1cnc2ccc(N3CCC[C@@H]3c3cccc(F)c3)nn12` [X-192], the IC50 is over 10000 nM with parental Ba/F3 cells and 127 nM in test [1].
The matching figures for `NCC(=O)Nc1cnc2ccc(N3CCC[C@@H]3c3cccc(F)c3)nn12` [X-193]: over 10000 nM and 118 nM.
The matching figures for `COCC(=O)Nc1cnc2ccc(N3CCC[C@@H]3c3cccc(F)c3)nn12` [X-200]: over 8830 nM and 23 nM.
The matching figures for `CC(=O)NCC(=O)Nc1cnc2ccc(N3CCC[C@H]3c3cccc(F)c3)nn12` [X-201]: over 10000 nM and 392 nM.
Turning to `NCC(=O)Nc1cnc2ccc(N3CC(F)(F)C[C@@H]3c3cccc(F)c3)nn12` [X-204, (R)-2-amino-N-(6-(4,4-difluoro-2-(3-fluorophenyl)pyrrolidin-1-yl)imidazo[1,2-b]pyridazin-3-yl)acetamide], the IC50 with parental Ba/F3 cells is over 10000 nM; in test [1], 28 nM.
For the molecule `O=C(NCCCl)Nc1cnc2ccc(N3CCC[C@H]3c3cccc(F)c3)nn12` [X-209], the IC50 in the test on parental Ba/F3 cells was over 10000 nM; in test [1], 252 nM.
On to `NC(=NO)c1cnc2ccc(N3CCCC3c3cccc(F)c3)nn12` (stereo not drawn) [X-226], for which the IC50 with parental Ba/F3 cells was over 10000 nM; in test [1], 165 nM.
For the molecule `NC(=NO)c1cnc2ccc(N3CCC[C@@H]3c3cccc(F)c3)nn12` [X-227, (Z)-6-(2-(3-fluorophenyl)pyrrolidin-1-yl)-N′-hydroxyimidazo[1,2-b]pyridazine-3-carboximidamide], the figures for the IC50 (with parental Ba/F3 cells; in test [1]) were over 10000 nM and 44 nM, respectively.
The matching figures for `CO/N=C(/N)c1cnc2ccc(N3CCC[C@@H]3c3cccc(F)c3)nn12` [X-228, (R)-6-(2-(3-fluorophenyl)pyrrolidin-1-yl)-N′-methoxyimidazo[1,2-b]pyridazine-3-carboximidamide]: over 10000 nM and 132 nM.
Turning to `N/C(=N\OCCO)c1cnc2ccc(N3CCC[C@@H]3c3cccc(F)c3)nn12` [X-229], the IC50 with parental Ba/F3 cells is over 10000 nM; in test [1] it was 331 nM.
The matching figures for `CC(C)(C)OC(=O)Nc1cnc2ccc(N3CCC[C@@H]3c3cccc(F)c3)nn12` [X-233]: over 10000 nM and 379 nM.
The matching figures for `CC(C)OC(=O)Nc1cnc2ccc(N3CCC[C@@H]3c3cccc(F)c3)nn12` [X-234]: over 10000 nM and 449 nM.
The matching figures for `COC(=O)Nc1cnc2ccc(N3CCC[C@@H]3c3cccc(F)c3)nn12` [X-235]: over 10000 nM and 586 nM.
With `CCOC(=O)Nc1cnc2ccc(N3CCC[C@@H]3c3cccc(F)c3)nn12` [X-236, (R)-ethyl 6-(2-(3-fluorophenyl)pyrrolidin-1-yl)imidazo[1,2-b]pyridazin-3-ylcarbamate], the IC50 with parental Ba/F3 cells is over 10000 nM; in test [1] it was 545 nM.
The matching figures for `CCNS(=O)(=O)c1cnc2ccc(N3CCC[C@@H]3c3cccc(F)c3)nn12` [X-237, (R)-N-ethyl-6-(2-(3-fluorophenyl)pyrrolidin-1-yl)imidazo[1,2-b]pyridazine-3-sulfonamide]: over 10000 nM and 3320 nM.
For `O=C(Nc1cnc2ccc(N3CC(F)(F)C[C@@H]3c3cccc(F)c3)nn12)Oc1ccccc1` [X-238], the IC50 was over 10000 nM with parental Ba/F3 cells and 445 nM in test [1].
The matching figures for `CCOC(=O)c1cnc2ccc(N3C[C@@H](F)C[C@@H]3c3ccc(F)c(F)c3)nn12` [X-239]: over 10000 nM and 194 nM.
The matching figures for `NC(=O)c1cnc2ccc(N3C[C@@H](F)C[C@@H]3c3ccc(F)c(F)c3)nn12` [X-240]: over 10000 nM and 198 nM.
Turning to `NC(=O)c1cnc2ccc(N3C[C@@H](F)C[C@@H]3c3cc(F)cc(F)c3)nn12` [X-241], the IC50 came out at 6700 nM with parental Ba/F3 cells and 3 nM in test [1].
As to `CCOC(=O)c1cnc2ccc(N3C[C@@H](F)C[C@@H]3c3cc(F)cc(C#N)c3)nn12` [X-243], the results for the IC50 (in the test with parental Ba/F3 cells; in test [1]) were over 10000 nM and 2 nM, respectively.
Take `N#Cc1cc(F)cc([C@H]2C[C@H](F)CN2c2ccc3ncc(C(N)=O)n3n2)c1` [X-244]: the results for the IC50 (with parental Ba/F3 cells; in test [1]) were over 10000 nM and 61 nM, respectively.
